For this assay, the system named is human osteosarcoma cancer xenograft model SJSA1. In words: Survival / increase in life span in SJSA1 xenograft. The format is in vivo, mice. As to conditions: for 50% Treatment Days (median survival): vehicle 26 days. On the procedure: For survival assessment, the percent of increased life space (ILS) was calculated as: 100×[(median survival day of treated group−median survival day of control group)/median survival day of control group]. Median survival was determined utilizing Kaplan Meier survival analysis. Survival in treated groups was statistically compared with the vehicle group and survival comparisons were done between groups using the log-rank test (Graph Pad Prism, La Jolla, Calif., USA). Differences between groups were considered significant when the probability value (p) was ≤0:05.
All dose levels are reported as the actual dosage of Compound A rather than including drug plus polymer.
Female athymic Crl:NU-Foxn1nu mice (10/group), obtained from Charles River Laboratories (Wilmington, Del.) were utilized when they were approximately 10-12 weeks of age and weighed 23-25 g. The health of the mice was assessed daily by gross observation and analyses of blood samples taken from sentinel animals housed on shared shelf racks. All animals were allowed to acclimate and recover from any shipping-related stress for a minimum of 72 hours prior to experimental use. Autoclaved water and irradiated food (5058-ms Pico Lab mouse chow, Purina Mills, Richmond, Ind.) were provided ad libitum, and the animals were maintained on a 12 hour light and dark cycle. Cages, bedding and water bottles were autoclaved before use and changed weekly. All animal experiments were conducted in accordance with the Guide for the Care and Use of Laboratory Animals, local regulations, and protocols approved by the Roche Animal Care and Use Committee in an AAALAC accredited facility.
SJSA cells (ATCC) were maintained in RPMI 1640+10% (v/v) heat-inactivated FBS+i % (v/v) […] L-glutamine. Each mouse received 5×10^6 cells in a 1:1 mixture of phosphate buffered saline and Matrigel in a total volume of 0.2 ml. Cells were implanted subcutaneously in the right flank using a 1 cc syringe and a 26 gauge needle.
Treatment duration was 2-4 weeks. Dates of tumor implant, treatment initiation (study start date), and termination of treatment (study end date) can be found in Table 6 below. The starting tumor volume for this study was about 220 mm^3. Tumor volumes and animal body weights were measured three times per week and animals were monitored for clinical signs daily.

Setting [1] is: 100 mg/kg QD po 2 on/12 off x 2.
Where [2] appears, read: 200 mg/kg (two 100 mg/kg doses 8 hr apart) 1x/wk po.

Turning to `COc1cc(C(=O)O)ccc1NC(=O)[C@@H]1N[C@@H](CC(C)(C)C)[C@](C#N)(c2ccc(Cl)cc2F)[C@H]1c1cccc(Cl)c1F` [Compound A, 4-{[(2R,3S,4R,5S)-4-(4-Chloro-2-fluoro-phenyl)-3-(3-chloro-2-fluoro-phenyl)-4-cyano-5-(2,2-dimethyl-propyl)-pyrrolidine-2-carbonyl]-amino}-3-methoxy-benzoic acid], the “% Increased Life Span (% ILS)” value by setting is: (7.5 mg/kg QD po) 23%; (15 mg/kg QD po) 62%; (20 mg/kg QD po 20 on/8 off) 77%; (30 mg/kg QD po) 127%; (50 mg/kg 1x/wk po) 23%; (50 mg/kg QD po 2 on/5 off x 4) 119%. The “% Increased Life Span (% ILS)” value runs as follows: (50 mg/kg QD po 4 on/10 off x 2) 112%; (80 mg/kg QD po 5 on/23 off) 127%; (100 mg/kg 1x/wk po) 77%; (100 mg/kg QD po 2 on/5 off x 4) 188%; under setting [1], 119%; under setting [2], 162%. The “50% Treatment Days (median survival)” value was 32 days (7.5 mg/kg QD po); 42 days (15 mg/kg QD po); 46 days (20 mg/kg QD po 20 on/8 off); 59 days (30 mg/kg QD po); 32 days (50 mg/kg 1x/wk po); 57 days (50 mg/kg QD po 2 on/5 off x 4). For the same compound, the “50% Treatment Days (median survival)” value (50 mg/kg QD po 4 on/10 off x 2) is recorded as 55 days; the “50% Treatment Days (median survival)” value (80 mg/kg QD po 5 on/23 off) is on record as 59 days; the “50% Treatment Days (median survival)” value (100 mg/kg 1x/wk po) is 46 days; the “50% Treatment Days (median survival)” value (100 mg/kg QD po 2 on/5 off x 4) is recorded as 75 days; the “50% Treatment Days (median survival)” value under setting [1] is given as 57 days; the “50% Treatment Days (median survival)” value under setting [2] is on record as 68 days.
